According to US10287617B2, “Methods for in vitro—in vivo efficacy determination” (COLORADO STATE UNIVERSITY RESEARCH FOUNDATION, priority 2014, dated 2019):
≈ marks a conversion by molar mass, not a printed value. Entries after “also recorded” stand apart in the source; their conditions may differ. Where two headings read alike, the source gives them in different places. Marks after values point to notes of the source that are not given here.

Key:
[1] = tested on: M. tuberculosis Erdman; experiment: Dissemination model in immune competent C57BL/6 mice; type: in vivo, mouse; settings: isoniazid 25 mg/kg q.d.; for reduction of bacterial load in the spleen: compound 100 mg/kg IP b.i.d. 10 days
Method: (§1) Compound efficacy was assessed in two murine models of infection based on the short term model described previously (Lenaerts et al., Antimicrob. Agents Chemother. 2003; 47:783-785). All aerosol infections were performed using a Middlebrook aerosol generation devise (Glas-Col, Terre Haute, Ind.).
(§2) In the first infection model, immune incompetent C57BL/6-Ifngtm1 ts gamma interferon gene disruption (GKO) mice were infected with M. tuberculosis H37Rv. Animals were dosed q.d. IP beginning at day 12 post-infection with 150 mg/kg of compound in 38% ethanol and 10% Solutol (e.g., Solutol HS 15) for 9 consecutive days. In the second animal model, immune competent C57BL/6 mice were infected with M. tuberculosis Erdman (TMCC 107). Animals were dosed b.i.d. IP with 100 mg/kg compound in 25% ethanol and 25% Solutol beginning at day 5 post-in feet ion for 10 consecutive days. Isoniazid was used as a comparative positive control and was delivered q.d. at 25 mg/kg as a positive control.
(§3) In both studies, animals were sacrificed and necropsied, bacterial burden in lungs or spleens were quantified on 7H11 agar containing carbenicillin (Sigma, C1389) and cycloheximide (Sigma, C7698) and upon incubation for three weeks bacterial colony forming units were enumerated. Outliers were identified by the Grubbs' Test and a one-way t-test at a 95% confidence interval was used to compare treatment groups and controls, to calculate p-values, and to produce bar graphs and scatter plots GraphPad Prism Version 5.0d for Mac OS X (GraphPad Software, San Diego Calif., USA www.graphpad.com).

[2] = tested on: M. tuberculosis H37Rv; experiment: Acute infection model in immune incompetent GKO mice; type: in vivo, mouse; settings: compound 150 mg/kg IP q.d. 9 days, isoniazid 25 mg/kg q.d.
Method: as §1, §2, §3

[3] = tested on: M. tuberculosis Erdman; type: in vivo; settings: for Δ Lungs (difference between means of Test and Control Groups) / Δ Spleen (difference between means of Test and Control Groups) / Log10CFU Lungs / Log10CFU Spleen: 50 mg/kg b.i.d. (Inh q.d.); for Log10CFU Lungs / Log10CFU Spleen: day 15
[4] = tested on: non-replicating M. tuberculosis H37Rv; experiment: Low oxygen study, non-replicating bacilli; type: cell-based, Mycobacterium tuberculosis; settings: for Log10 (CFU+/−SD): 96 h post-treatment; for % Growth Reduction: benzimidazoles at 4 μg/mL; for Log10 (CFU) Reduction: vs control
Method: The low oxygen studies were performed similar to those described previously (Lenaerts et al., Antimicrob. Agents Chemother. 2005; 49:2294-2301). Briefly, M. tuberculosis H37Rv were diluted to an O.D. 600 nm of 0.003 in 7H9 media containing Methylene Blue (1.5 μg/mL) and were grown in 16×125 mm Hungate tubes with rubber septa (VWR cat#89167-170). The tubes, with 11 mL of the diluted cultures were incubated at 37° C. under agitation (150 rpm). […] One week after the reduction of methylene blue, approximately 28 days from the start, drug treatment was initiated with the test and control drugs. Prior to treatment, an aliquot was removed and plated for a CFU count to serve as a control. Isoniazid and metronidazole were used in the studies as comparative controls.
Recovery of aliquots for plating and the addition of drugs were conducted through septa using syringes to maintain the low-oxygen conditions. Ninety-six hours post-treatment, 1 mL of the culture was removed from the oxygen depleted cultures, the aliquot was serial diluted and the dilutions were plated. Log10 CFUs were calculated for the different treatments and concentrations. Percentage growth reduction from the controls was calculated and reported.

[5] = tested on: M. tuberculosis H37Rv; experiment: MIC / dose response by modified microplate Alamar Blue assay (MABA); type: cell-based, Mycobacterium tuberculosis; settings: for drug concentration response curve (kill curve) type: FIG. 3
[6] = tested on: M. tuberculosis; experiment: Benzimidazoles activity tested in animals (animal models of infection, Table A); type: in vivo, mouse; settings: Table A
Method: (§4) Further analysis using the methods described herein was performed on the compounds found in Tables A and B (bold font compounds are shown in FIG. 11) resulting in the data found therein.
as §1

[7] = tested on: Mycobacteria tuberculosis; experiment: MIC and drug response curve type (Tables A and B); type: cell-based, Mycobacterium tuberculosis; settings: Table A; for Curve: drug response curve type; for MIC: in µg/mL
Method: A drug concentration response curve can be generated by graphing the log10 drug concentrations (μg/mL) against the difference in growth between the drug-treated wells and control wells. See FIG. 3C, and FIG. 5 (entries for SB-P23D8 and SB-P26D9). A NREBA is indicative of bacteriostatic activity above the MIC.
as §4
MIC values were determined for the benzimidazoles using a modified 96-well microplate Alamar Blue (resazurin) assay (MABA) (see Kumar et al., J. Med. Chem. 2011; 54:374-381; Collins and Franzblau, Antimicrob. Agents Chemother. 1997; 41:1004-1009). Dose response curves were generated from the MABA assay for compounds by graphing the log10 drug concentrations against the difference in growth between the drug-treated wells and control wells using GraphPad Prism Version 5.0d for Mac OS X (GraphPad Software, San Diego Calif., USA, www.graphpad.com). For time dose studies, bacterial growth in the presence of compound was monitored by the O.D. 600 nm. […] The values were plotted against time using GraphPad Prism Version 5.0d for Mac OS X (GraphPad Software, San Diego Calif., USA, www.graphpad.com).

[8] = tested on: M. tuberculosis H37Rv; experiment: Growth inhibition / time dose curves (OD600 and CFU); type: cell-based, Mycobacterium tuberculosis; settings: for reduction in number of viable bacteria: 1×MIC
[9] = tested on: M. tuberculosis NHN382; experiment: microbe, parasite or virus in culture; type: cell-based, Mycobacterium tuberculosis
[10] = molecular target: Mtb FtsZ (Mycobacterium tuberculosis, UniProt P9WN95); experiment: FtsZ polymerization by transmission electron microscopy; type: biochemical; settings: FtsZ 5 μM, GTP 25 μM, compound 40 μM and 80 μM
Sequence of Mtb FtsZ (P9WN95 whole entry, looked up): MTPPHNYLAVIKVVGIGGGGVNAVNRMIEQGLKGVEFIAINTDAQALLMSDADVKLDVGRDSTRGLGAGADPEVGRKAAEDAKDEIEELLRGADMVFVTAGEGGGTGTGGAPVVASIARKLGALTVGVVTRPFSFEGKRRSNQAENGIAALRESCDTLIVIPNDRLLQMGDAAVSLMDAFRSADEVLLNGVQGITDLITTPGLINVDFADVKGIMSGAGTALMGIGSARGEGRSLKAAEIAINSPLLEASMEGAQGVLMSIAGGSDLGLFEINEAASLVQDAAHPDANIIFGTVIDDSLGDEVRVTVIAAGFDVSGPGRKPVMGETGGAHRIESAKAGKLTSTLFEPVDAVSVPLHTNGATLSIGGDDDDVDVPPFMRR

[11] = tested on: M. tuberculosis clinical isolates; experiment: microbe, parasite or virus in culture; type: cell-based, Mycobacterium tuberculosis
[12] = tested on: M. tuberculosis W210; experiment: microbe, parasite or virus in culture; type: cell-based, Mycobacterium tuberculosis
[13] = Oxidative metabolic lability in human liver microsomes; settings: for Liver Microsome Lability Human: 5 μM, 1 mg/mL microsomal protein, 20 min
Method: (§5) Microsomal fractions were prepared in the Drug Disposition Domain at DSAR Montpellier (371 rue du Pr. J. Blayac, 34184 Montpellier Cedex 04, France). […] The flavin-containing monooxygenases (FMO)-dependent reactions were run in the presence of bovine serum albumin (BSA, 0.1%) for the duration of 0 and 20 min (with or without microsomal proteins and/or cofactors). […] Following protein precipitation with acetonitrile and their removal by centrifugation, supernatant fluids were analyzed by LC/MS-MS.
(§6) Thermo Finnigan TSQ Quantum Ultra instrument, ESI positive ion ionization mode. Each compound is studied in duplicates. Results are expressed in percentage of lability (or total metabolism). Total metabolism=[1−(UC_Peak Area+Cofactor at T20)/(UC_Peak Area Reference at T0)]×100
(§7) The reactions were prepared as described and were run in the presence of bovine scrum albumin (BSA, 0.1%) for the duration of 0 and 20 min (with or without microsomal proteins and/or cofactors). Enzyme activity was stopped, the protein was precipitated and removed by centrifugation. The supernatant fluids were analyzed by LC/MS-MS. […] A Thermo Finnigan TSQ Quantum Ultra instrument, ESI positive ion ionization mode was used for MS/MS. Each compound was studied in duplicates. Results are expressed in percentage of lability (or total metabolism) using the following formula: Total metabolism=[1−(UC_Peak Area+Cofactor at T20)/(UC_Peak Area Reference at T0)]×100 where UC=Unchanged Compound; “Reference” sample was NADPH for liver microsomal preparation.

[14] = Plasma stability in mouse plasma; settings: percent remaining
Method: Plasma was spiked with the compound in order to obtain a final drug concentration of 100 ng/mL (expressed as non-salified compound). The spiked plasma (dedicated to C1h and C4h) was then incubated at 37° C. for 1 h and 4 h. Plasma samples were analyzed by LC-MS/MS following protein precipitation. The limit of quantification for compounds was 10 ng/mL.
10 μL of the sample was injected to Luna Phenomenex C8 (50 mm×2.0 mm, 3 μm). Solvent A: ammonium acetate (0.15 g)/formic acid (2 mL)/HPLC water up to 1000 mL. Solvent B: ammonium acetate (0.15 g)/formic acid (2 mL)/Methanol (200 mL)/Acetonitrile up to 1000 mL, flow rate of 0.3 mL/min, t=0-6 min. gradient of 10-90% of B. Retention time for SB-P17G-C2 was 1.85 min and for SB-P17G-A20 was 3.3 min. MS/MS condition used for detection: Finnigan TSQ Quantum disco instrument, Excalibur version 2.0 acquisition system, ESI positive ion ionization mode. The mean percent of difference between C1h or C4h and C0 concentrations was calculated. M % D (%)=100×[(C1h or C4h)−C0]/C0
The compounds were considered as stable if the mean percent of difference between C4h and C0 concentrations was less than 20%.

[15] = tested on: M. tuberculosis NHN20; experiment: microbe, parasite or virus in culture; type: cell-based, Mycobacterium tuberculosis
[16] = tested on: M. tuberculosis TN587; experiment: microbe, parasite or virus in culture; type: cell-based, Mycobacterium tuberculosis
[17] = Oxidative metabolic lability in mouse liver microsomes; settings: for Liver Microsome Lability Mouse: 5 μM, 1 mg/mL microsomal protein, 20 min
Method: as §5, §6, §7

[18] = tested on: Vero cells; experiment: Cytotoxicity assay (resazurin, 72 h); type: cell-based; settings: at 200 μg/mL
Method: The cytotoxicity assay was performed as described previously^16. Briefly compounds were serially diluted in 96 well plates.

[19] = tested on: M. tuberculosis clinical isolates; settings: previously reported; cited from earlier work
[20] = tested on: M. tuberculosis H37Rv; settings: previously reported SAR study; cited from earlier work

NNC(=O)c1ccncc1 [Isoniazid, reference compound]
reduction of bacterial load in the spleen [1]: below detectable levels | reduction of bacterial load in the lung [1]: below detectable levels | reduction of bacterial load in spleen [2]: below the level of detection | reduction of bacterial load in the lungs [2]: 1.8 log10 CFU | Δ Lungs (difference between means of Test and Control Groups) ([3]; IP): −6.57*** Log10 CFU | Δ Spleen (difference between means of Test and Control Groups) ([3]; IP): −4.96*** Log10 CFU | Log10CFU Lungs ([3]; IP): 0.12 ± 0.16 Log10 CFU | Log10CFU Spleen ([3]; IP): 0 ± 0 Log10 CFU | Δ Lungs (difference between means of Test and Control Groups) ([3]; PO): −6.31*** Log10 CFU | Δ Spleen (difference between means of Test and Control Groups) ([3]; PO): −3.89*** Log10 CFU | Log10CFU Lungs ([3]; PO): 0 ± 0 Log10 CFU | Log10CFU Spleen ([3]; PO): 0 ± 0 Log10 CFU | Log10 (CFU+/−SD) [4]: 5.15 ± 0.2 | % Growth Reduction [4]: 36% | Log10 (CFU) Reduction [4]: 0.2 | drug concentration response curve (kill curve) type [5]: sigmoidal kill curve

CCCCOC(=O)Nc1cc2nc(C3CCCCC3)[nH]c2cc1N(CC)CC [SB-P3G2]
Efficacy Lung [6]: Yes | Efficacy Spleen [6]: Yes | reduction of bacterial load in the spleen [1]: 1.6±0.49 log10 | Curve [7]: Sigmoid | MIC [7]: 1.25 | reduction of bacterial load in spleen [2]: 0.41±0.36 log10 CFU | reduction of bacterial load in the lungs [2]: 0.71±0.17 log10 CFU | concentrations at which bacterial growth was inhibited ([8]; O.D. 600 nm growth curves, 5 days): greater than 0.62 μg/mL | Log10 (CFU+/−SD) [4]: 4.80 ± 0.21 | % Growth Reduction [4]: 72% | Log10 (CFU) Reduction [4]: 0.48 | drug concentration response curve (kill curve) type [5]: sigmoidal kill curves | MIC range ([5]; H37Rv and Erdman strains): 0.78 to 1.5 µg/mL

CN(C)c1cc2nc(C3CCCCC3)[nH]c2cc1NC(=O)c1ccc(OC(F)(F)F)cc1 [SB-P17G-A20]
Efficacy Lung [6]: Yes | Efficacy Spleen [6]: Yes | MIC [9]: 0.16 µg/mL (≈ 0.358 µM) | effect on FtsZ polymerization and aggregation (TEM) [10]: fewer, shorter and thinner FtsZ polymers | Curve [7]: Sigmoid | MIC [7]: .31 | MIC against different clinical strains [11]: 0.16 µg/mL (≈ 0.358 µM) | MIC [12]: 0.16 µg/mL (≈ 0.358 µM) | concentration that steadily reduced bacterial viability ([8]; CFU plating): 0.08 µg/mL | lowest concentration at which bacterial growth was reduced ([8]; in some cases): 0.125 ×MIC | Liver Microsome Lability Human [13]: 39% | metabolic stability (liver microsomes) in humans ([13]; percent remaining): 61% | plasma stability (4 hours) in mice [14]: 75.6% | MIC [15]: 0.16 µg/mL (≈ 0.358 µM) | MIC [16]: 0.16 µg/mL (≈ 0.358 µM) | MIC [5]: 0.16 μg/m | MIC ([5]; H37Rv): 0.16 µg/mL (≈ 0.358 µM) | Liver Microsome Lability Mouse [17]: 45% | metabolic stability (liver microsomes) in mice ([17]; percent remaining): 55%

CN(C)c1cc2[nH]c(C3CCCCC3)nc2cc1NC(=O)c1ccc(C(F)(F)F)cc1F [SB-P17G-A42]
Efficacy Lung [6]: Yes | Efficacy Spleen [6]: Yes | MIC ([9]; Mycobacterium tuberculosis): 0.16 µg/mL (≈ 0.357 µM) | Curve [7]: Sigmoid | MIC [7]: .156 | MIC ([11]; Mycobacterium tuberculosis, read-out: minimal inhibitory concentrations): 0.16 to 0.47 µg/mL (≈ 0.357 to 1.05 µM) | MIC ([12]; Mycobacterium tuberculosis): 0.31 µg/mL (≈ 0.691 µM) | reduction of bacterial load in the lungs ([3]; 50 mg/kg b.i.d. via either IP or PO): 5.6-5.8 Log10 CFU | Δ Lungs (difference between means of Test and Control Groups) ([3]; IP): −5.78*** Log10 CFU | Δ Spleen (difference between means of Test and Control Groups) ([3]; IP): −4.96*** Log10 CFU | Log10CFU Lungs ([3]; IP): 0.91 ± 0.64 Log10 CFU | Log10CFU Spleen ([3]; IP): 0 ± 0 Log10 CFU | Δ Lungs (difference between means of Test and Control Groups) ([3]; PO): −5.65*** Log10 CFU | Δ Spleen (difference between means of Test and Control Groups) ([3]; PO): −3.89*** Log10 CFU | Log10CFU Lungs ([3]; PO): 0.66 ± 0.43 Log10 CFU | Log10CFU Spleen ([3]; PO): 0 ± 0 Log10 CFU | reduction of bacterial load in the lungs ([3]; delivered IP, 50 mg/kg b.i.d.): 5.8 Log10 CFU | reduction of bacterial load in the lungs ([3]; delivered PO, 50 mg/kg b.i.d.): 5.6 Log10 CFU | reduction in number of viable bacteria ([8]; day 2): 2.5 Log10 CFU | reduction in number of viable bacteria ([8]; day 6): ~4 Log10 CFU | Liver Microsome Lability Human [13]: 12% | MIC ([15]; Mycobacterium tuberculosis): 0.16 µg/mL (≈ 0.357 µM) | MIC ([16]; Mycobacterium tuberculosis): 0.24 ± 0.11 µg/mL (≈ 0.535 µM) | MIC ([5]; H37Rv): 0.18 ± 0.1 µg/mL (≈ 0.401 µM) | MIC ([5]; Mycobacterium tuberculosis, H37RV): 0.18 ± 0.1 µg/mL (≈ 0.401 µM) | cytotoxicity in Vero cells [18]: not cytotoxic; also recorded: non-toxic | Liver Microsome Lability Mouse [17]: 13%

CCCCOC(=O)Nc1cc2nc(C3CCCCC3)[nH]c2cc1N(C)C [SB-P17G-C2]
Efficacy Lung [6]: Yes (.3464) | Efficacy Spleen [6]: No | Curve [7]: Sigmoid | MIC [7]: .063 | MIC against clinical isolates [19]: 0.06 to 0.13 µg/mL | MIC [20]: 0.06 µg/mL (≈ 0.167 µM) | Liver Microsome Lability Human [13]: 90% | Liver Microsome Lability Mouse [17]: 96%
